# Measurements as given in patent publication US20230150978A1, “QUINAZOLINONE DERIVATIVES AND USES THEREOF FOR TREATING A CANCER” (ENYO PHARMA, priority 2020, published 2023).
# Experiments:
# [1] = system: HMGB1; experiment: HMGB1 release screen, Nano-Glo HiBiT extracellular detection; assay type: cell-based; settings: Homo sapiens, MDA-MB-231, MDA-MB-231 cells stably expressing HMGB1-HiBiT; extracellular luminescence
# Procedure: Construction of pBiT3.1-HMGB1 Plasmid
# (§1) HMGB1 derived from pCMV6-AC-GFP plasmid (ref. RG205918, Origene) was amplified by PCR using the following set of primers: Seq ID No 1: forward, 5′-[…]-3′; Seq ID No 2: reverse, 5′-[…]-3′. The PCR fragment was subsequently digested by EcoRI and XhoI (R3101S and R0146S respectively, New England Biolabs) and inserted between the EcoRI and XhoI sites in the plasmid pBiT3.1-C(ref. N237A, Promega). The resulting plasmid (pBiT3.1-HMGB1) was grown in NEB10-beta competent E. coli (ref. C3019I, New England Biolabs) and purified using the NucleoBond Xtra Midi Kit (ref. 740410, Macherey-Nagel).
# Construction of HMGB1 Reporter Cell Line
# (§2) pBiT3.1-HMGB1 was transfected in MDA-MB-231 cells (ref. ATCC HTB-2) using Lipofectamine 2000 reagent (ref. 11668, Invitrogen). Transfected cells were selected for blasticidin resistance (15 μg/ml, ref. Al 113903 Gibco) in medium containing DMEM 1× (ref. 1995065, Gibco) with 1% penicillin and streptomycin, and 10% fetal bovine serum.
# Screen for HMGB1-Releasing Drugs
# (§3) MDA-MB-231 cells stably expressing HMGB1-HiBiT (10^4 cells/well) were seeded into white 96-well plates (ref.3917, Corning) and allowed to recover for 24h. […] Mitoxantrone dihydrochloride (ref. M6545, Sigma-Aldrich) was used as a positive control. Extracellular translocation of HMGB1 was measured using the Nano-Glo HiBiT extracellular detection system (ref. N2422, Promega). Nano-Glo HiBiT Extracellular Reagent was prepared in advance, added to the well and incubated 10 min. Luminescence of the extracellular HMGB1-HiBiT was quantified using the Spark 20M spectrofluorimeter (TECAN)
# [2] = system: Calreticulin; experiment: Calreticulin release (ER to plasma membrane translocation) screen, Nano-Glo HiBiT extracellular detection; assay type: cell-based; settings: Homo sapiens, MDA-MB-231, MDA-MB-231 cells stably expressing Calreticulin-HiBiT; extracellular luminescence; read-out: CalR EC50
# Procedure: as §1, with “Construction of pBiT3.1-Calreticulin Plasmid Calreticulin” for “HMGB1”, “pCMV6-AC” for “pCMV6-AC-GFP”, “SC320287,” for “RG205918,”, “3:” for “1:”, “4:” for “2:”, “(pBiT3.1-Calreticulin)” for “(pBiT3.1-HMGB1)”
# Construction of Calreticulin Reporter Cell Line
# as §2, with “pBiT3.1-Calreticulin” for “pBiT3.1-HMGB1”
# Screen for Calreticulin-ER to Plasma Membrane Translocating Drugs
# as §3, with “Calreticulin-HiBiT” for “HMGB1-HiBiT”, “Calreticulin” for “HMGB1”, “min.” for “min. Luminescence of the extracellular HMGB1-HiBiT was quantified using the Spark 20M spectrofluorimeter (TECAN)”
# Luminescence of the extracellular Calreticulin-HiBiT was quantified using the Spark 20M spectrofluorimeter (TECAN).
SMILES,EC50 [1] [µM],EC50 [2] [µM]
"Cc1ccc2c(c1)N(Cc1nc3ccc(Cl)cc3c(=O)[nH]1)CCC2 [Ex. #127, 6-chloro-2-[(7-methyl-3,4-dihydro-2H-quinolin-1-yl)methyl]-3H-quinazolin-4-one]",13.4,6.96
"Cc1ccc2c(c1)CCN2Cc1nc2ccc(Cl)cc2c(=O)[nH]1 [Ex. #46, 6-chloro-2-[(5-methylindolin-1-yl)methyl]-3H-quinazolin-4-one]",5.51,2.71
"Cc1ccc2nc(CN3CCc4ccccc43)[nH]c(=O)c2c1 [Ex. #84, 2-(indolin-1-ylmethyl)-6-methyl-3H-quinazolin-4-one]",2.63,0.695
"O=c1[nH]c(CN2CCc3ccccc32)nc2ccc(OC(F)(F)F)cc12 [Ex. #82, 2-(indolin-1-ylmethyl)-6-(trifluoromethoxy)-3H-quinazolin-4-one]",1.17,1.38
"COc1ccc2nc(CN3CCCN(C)c4ccccc43)[nH]c(=O)c2c1 [Ex. 23, 6-methoxy-2-[(1-methyl-3,4-dihydro-2H-1,5-benzodiazepin-5-yl)methyl]-3H-quinazolin-4-one]",2,1.96
"CN(C)c1ccc2nc(CN3CC(C)(C)c4ccccc43)[nH]c(=O)c2c1 [Ex. #74, 6-(dimethylamino)-2-[(3,3-dimethylindolin-1-yl)methyl]-3H-quinazolin-4-one]",0.21,0.2
"COc1ccc2nc(CN3CC(CCO)c4ccccc43)[nH]c(=O)c2c1 (centres unmarked) [Ex. #129, 2-[[3-(2-hydroxyethyl)indolin-1-yl]methyl]-6-methoxy-3H-quinazolin-4-one]",13.3,10.7
"COc1cccc2c1N(Cc1nc3ccc(Cl)cc3c(=O)[nH]1)CC2 [Ex. #49, 6-chloro-2-[(7-methoxyindolin-1-yl)methyl]-3H-quinazolin-4-one]",11.2,7.56
"COc1ccc2nc(CN3CCCc4cccc(Cl)c43)[nH]c(=O)c2c1 [Ex. #12, 2-[(8-chloro-3,4-dihydro-2H-quinolin-1-yl)methyl]-6-methoxy-3H-quinazolin-4-one]",0.751,0.522
"O=c1[nH]c(CN2CCc3ccccc32)nc2cc(F)ccc12 [Ex. #138, 7-fluoro-2-(indolin-1-ylmethyl)-3H-quinazolin-4-one]",14.5,12
"CC(c1nc2ccc(Cl)cc2c(=O)[nH]1)N1CCc2ccccc21 (centres unmarked) [Ex. #120, 6-chloro-2-(1-indolin-1-ylethyl)-3H-quinazolin-4-one]",7.86,4.61
"O=c1[nH]c(CN2CCc3cc(Br)ccc32)nc2ccc(Cl)cc12 [Ex. #48, 2-[(5-bromoindolin-1-yl)methyl]-6-chloro-3H-quinazolin-4-one]",6.06,5.96
"O=c1[nH]c(CN2CCc3ccccc32)nc2ccc(N3CCCCC3)cc12 [Ex. #106, 2-(indolin-1-ylmethyl)-6-(1-piperidyl)-3H-quinazolin-4-one]",11.1,8.46
"COc1ccc2nc(CN3Cc4ccccc4C(O)C3)[nH]c(=O)c2c1 (centres unmarked) [Ex. #123, 2-[(4-hydroxy-3,4-dihydro-1H-isoquinolin-2-yl)methyl]-6-methoxy-3H-quinazolin-4-one]",13.1,3.61
"COCC1CCN(c2ccc3nc(CN4CCc5ccccc54)[nH]c(=O)c3c2)C1 (centres unmarked) [Ex. #103, 2-(indolin-1-ylmethyl)-6-[3-(methoxymethyl)pyrrolidin-1-yl]-3H-quinazolin-4-one]",0.858,0.518
"COc1ccc(OC)c2c1CN(Cc1nc3ccc(Cl)cc3c(=O)[nH]1)CC2O (centres unmarked) [Ex. #61, 6-chloro-2-[(4-hydroxy-5,8-dimethoxy-3,4-dihydro-1H-isoquinolin-2-yl)methyl]-3H-quinazolin-4-one]",3.86,0.45

SMILES,EC50 [1] [µM],EC50 [2] [µM]
"COc1ccc2nc(CN3CCOc4cccc(OC)c43)[nH]c(=O)c2c1 [Ex. #14, 6-methoxy-2-[(5-methoxy-2,3-dihydro-1,4-benzoxazin-4-yl)methyl]-3H-quinazolin-4-one]",2.16,1.96
"CC1Cc2ccccc2N1Cc1nc2ccc(Cl)cc2c(=O)[nH]1 (centres unmarked) [Ex. #41, 6-chloro-2-[(2-methylindolin-1-yl)methyl]-3H-quinazolin-4-one]",9.61,8.01
"O=c1[nH]c(CN2CCCCc3ccccc32)nc2ccc(Cl)cc12 [Ex. #62, 6-chloro-2-(2,3,4,5-tetrahydro-1-benzazepin-1-ylmethyl)-3H-quinazolin-4-one]",1.06,0.96
"O=c1[nH]c(CN2CCc3ccccc32)nc2ccc(N3CCC(CO)C3)cc12 (centres unmarked) [Ex. #104, 6-[3-(hydroxymethyl)pyrrolidin-1-yl]-2-(indolin-1-ylmethyl)-3H-quinazolin-4-one]",3.46,2.16
"COC1CCN(c2ccc3nc(CN4CCc5ccccc54)[nH]c(=O)c3c2)CC1 [Ex. #132, 2-(indolin-1-ylmethyl)-6-(4-methoxy-1-piperidyl)-3H-quinazolin-4-one]",14.4,10.4
"COc1ccc2nc(CN3CC(CCN)c4ccccc43)[nH]c(=O)c2c1 (centres unmarked) [Ex. #131, 2-[1-[(6-methoxy-4-oxo-3H-quinazolin-2-yl)methyl]indolin-3-yl]ethylammonium chloride]",14.5,12.1
"COc1cc(OC)c2nc(CN3CC(C)(C)c4ccccc43)[nH]c(=O)c2c1 [Ex. #94, 2-[(3,3-dimethylindolin-1-yl)methyl]-6,8-dimethoxy-3H-quinazolin-4-one]",5.76,3.06
"Cc1cccc2c1CCN2Cc1nc2ccc(Cl)cc2c(=O)[nH]1 [Ex. #43, 6-chloro-2-[(4-methylindolin-1-yl)methyl]-3H-quinazolin-4-one]",1.15,1.07
"COc1ccc2nc(CN3CCc4c(Cl)cccc4C3)[nH]c(=O)c2c1 [Ex. #20, 2-[(5-chloro-3,4-dihydro-1H-isoquinolin-2-yl)methyl]-6-methoxy-3H-quinazolin-4-one]",10.8,4.26
"O=c1[nH]c(CN2CCc3ccccc32)nc2ccc(Cl)cc12 [Ex. #36, 6-chloro-2-(indolin-1-ylmethyl)-3H-quinazolin-4-one]",1.01,1.8
"COc1ccc2nc(CN3CCc4ccccc43)[nH]c(=O)c2c1 [Ex. #1, 2-(indolin-1-ylmethyl)-6-methoxy-3H-quinazolin-4-one]",2.72,0.231
"COc1ccc2c(c1)CCN2Cc1nc2ccc(Cl)cc2c(=O)[nH]1 [Ex. #144, 6-chloro-2-((5-methoxyindolin-1-yl)methyl)quinazolin-4(3H)-one]",14.6,9.71
"CN1CCCN(Cc2nc3ccc(Cl)cc3c(=O)[nH]2)c2ccccc21 [Ex. #63, 6-chloro-2-[(1-methyl-3,4-dihydro-2H-1,5-benzodiazepin-5-yl)methyl]-3H-quinazolin-4-one]",4.26,3.86
"CC(C)Oc1ccc2nc(CN3CCc4ccccc43)[nH]c(=O)c2c1 [Ex. #87, 2-(indolin-1-ylmethyl)-6-isopropoxy-3H-quinazolin-4-one]",3.96,2.16
"O=c1[nH]c(CN2CCCc3ccccc32)nc2ccc(Cl)cc12 [Ex. #51, 6-chloro-2-(3,4-dihydro-2H-quinolin-1-ylmethyl)-3H-quinazolin-4-one]",11.8,10.3
